# Results as given in PubChem BioAssay (NCI).
#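 Grown in 96-well plates, cells were treated for 48 hours with each compound at five concentrations. Insufficient inhibition: endpoint recorded as highest concentration tested. At the GI50, growth is halved. TGI: total growth inhibition.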
# Legend:
# Experiment in all cases: inhibition of tumour cell growth, NCI panel, 48 h
# EKVX NSCLC = tested on: EKVX NSCLC
# SR leukemia = tested on: SR leukemia
# MCF7 breast = tested on: MCF7 breast
# IGROV1 ovarian = tested on: IGROV1 ovarian
# HL-60(TB) leukemia = tested on: HL-60(TB) leukemia
# SNB-75 CNS = tested on: SNB-75 CNS
# U251 CNS = tested on: U251 CNS
# NCI-H23 lung = tested on: NCI-H23 lung
# SF-295 CNS = tested on: SF-295 CNS
# OVCAR-4 ovarian = tested on: OVCAR-4 ovarian
# A549 NSCLC = tested on: A549 NSCLC
# MOLT-4 leukemia = tested on: MOLT-4 leukemia
# SK-MEL-28 melanoma = tested on: SK-MEL-28 melanoma
# SF-539 CNS = tested on: SF-539 CNS
# HS 578T breast = tested on: HS 578T breast
# MALME-3M melanoma = tested on: MALME-3M melanoma
# OVCAR-8 ovarian = tested on: OVCAR-8 ovarian
# MDA-MB-435 = tested on: MDA-MB-435
# KM12 colon = tested on: KM12 colon
# UACC-62 melanoma = tested on: UACC-62 melanoma
# ACHN renal = tested on: ACHN renal
# A498 renal = tested on: A498 renal
# 786-0 renal = tested on: 786-0 renal
# HCT-15 colon = tested on: HCT-15 colon
# RPMI-8226 leukemia = tested on: RPMI-8226 leukemia
# UACC-257 melanoma = tested on: UACC-257 melanoma
# HCC-2998 colon = tested on: HCC-2998 colon
# SK-MEL-2 melanoma = tested on: SK-MEL-2 melanoma
# HT29 colon = tested on: HT29 colon
smiles,measurement,setting,value
COC(=O)c1cc2oc(/C=C3/SC(=S)N(NC(C)=O)C3=O)cc2n1C,GI50,EKVX NSCLC,11.3 µM
same,TGI,EKVX NSCLC,40.5 µM
same,GI50,SR leukemia,3.32 µM
same,TGI,SR leukemia,> 100 µM
same,GI50,MCF7 breast,11.6 µM
same,TGI,MCF7 breast,> 100 µM
same,GI50,IGROV1 ovarian,23.3 µM
same,TGI,IGROV1 ovarian,> 100 µM
same,GI50,HL-60(TB) leukemia,38.3 µM
same,TGI,HL-60(TB) leukemia,> 100 µM
same,GI50,SNB-75 CNS,34.7 µM
same,TGI,SNB-75 CNS,> 100 µM
same,GI50,U251 CNS,16 µM
same,TGI,U251 CNS,45 µM
same,GI50,NCI-H23 lung,16.6 µM
same,TGI,NCI-H23 lung,50.1 µM
same,GI50,SF-295 CNS,18.2 µM
same,TGI,SF-295 CNS,65.5 µM
same,GI50,OVCAR-4 ovarian,37.7 µM
same,TGI,OVCAR-4 ovarian,> 100 µM
same,GI50,A549 NSCLC,28.3 µM
same,TGI,A549 NSCLC,> 100 µM
same,GI50,MOLT-4 leukemia,11.3 µM
same,TGI,MOLT-4 leukemia,62.1 µM
same,GI50,SK-MEL-28 melanoma,40.3 µM
same,TGI,SK-MEL-28 melanoma,> 100 µM
same,GI50,SF-539 CNS,12.9 µM
same,TGI,SF-539 CNS,29.1 µM
same,GI50,HS 578T breast,15.2 µM
same,TGI,HS 578T breast,59.2 µM
same,GI50,MALME-3M melanoma,10.8 µM
same,TGI,MALME-3M melanoma,52 µM
same,GI50,OVCAR-8 ovarian,23.1 µM
same,TGI,OVCAR-8 ovarian,99.1 µM
same,GI50,MDA-MB-435,17.6 µM
same,TGI,MDA-MB-435,> 100 µM
same,GI50,KM12 colon,26.4 µM
same,TGI,KM12 colon,> 100 µM
same,GI50,UACC-62 melanoma,14.7 µM
same,TGI,UACC-62 melanoma,35 µM
same,GI50,ACHN renal,15.8 µM
same,TGI,ACHN renal,43.5 µM
same,GI50,A498 renal,10.8 µM
same,TGI,A498 renal,28.1 µM
same,GI50,786-0 renal,20.1 µM
same,TGI,786-0 renal,42.6 µM
same,GI50,HCT-15 colon,14.9 µM
same,TGI,HCT-15 colon,58.5 µM
same,GI50,RPMI-8226 leukemia,24 µM
same,TGI,RPMI-8226 leukemia,> 100 µM
same,GI50,UACC-257 melanoma,30.1 µM
same,TGI,UACC-257 melanoma,> 100 µM
same,GI50,HCC-2998 colon,12 µM
same,TGI,HCC-2998 colon,29.5 µM
same,GI50,SK-MEL-2 melanoma,23.9 µM
same,TGI,SK-MEL-2 melanoma,> 100 µM
same,GI50,HT29 colon,27.2 µM
